According to BindingDB's records for doi:10.7270/Q22F7KVM (The Scripps Research Institute Molecular Screening Center, 2009):

Biological target: T1, Guanyl-specific ribonuclease T1 (Aspergillus oryzae (strain ATCC 42149 / RIB 40), UniProt P00651)
T1 sequence (P00651 whole entry): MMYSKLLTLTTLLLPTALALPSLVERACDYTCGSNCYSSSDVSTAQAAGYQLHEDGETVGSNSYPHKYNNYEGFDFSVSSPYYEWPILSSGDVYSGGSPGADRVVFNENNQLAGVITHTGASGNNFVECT
Experiment: inhibition of ribonuclease T1 activity – biochemical, fluorescence polarization, 1536-well, counter-screen for TPT1 inhibitor project, dose response (AID 2167)

IC50: > 55.7 µM
Structure (SMILES): Cc1ccc2nc(N=NCc3ccc([N+](=O)[O-])o3)nc(-c3ccccc3)c2c1
